Patent publication US20250066290A1, “DHODH INHIBITORS CONTAINING A CARBOXYLIC ACID BIOISOSTERE” (IMMUNIC AG, priority 2021, published 2025)
pEC50, pIC50: −log10 of the molar value. In brackets after ≈: the same amount, converted by molar mass. Like-named read-outs stand apart in the source and are kept apart here.

Legend:
in vitro [1] = test: in vitro
human rhinovirus HRV-14 = test: Antiviral activity on human rhinovirus; assay type: cell-based; conditions: Rhinovirus B, HRV14
[2] = Mouse pharmacokinetics, male and female, cassette dosing; assay type: in vivo, mice (C57BL/6J); conditions: for AUC / Cmax / half-life: C57BL/6J, mouse, in vivo; for AUC: 0 to 24 h; for Cmax: 5 mg/kg oral, 1 mg/kg intravenous cassette; for F: bioavailability
Experimental: The pharmacokinetics of the compounds of the present invention was evaluated in 3 male and 3 female mice (C57BL/6J, 8 week old) after oral or intravenous cassette dosing to assess the oral bioavailability. Dose was 5 mg/kg (oral) and 1 mg/kg (intravenous), application volume was 5 mL/kg (oral) and 0.5 mL/kg (intravenous), vehicle was 5% solutol, 95% NaCl solution (at 0.9% saline concentration) for oral and 5% solutol, 5% ethanol, 90% NaCl solution (at 0.9% saline concentration) for intravenous. At each designated time point (0.5, 1, 2, 4, 8 and 24 h after dosing), 20 μL whole blood were collected from the tail vein into Li-heparin tubes, frozen on dry ice within 1-2 minutes of sampling and stored at −20° C. until processed for LC-MS analysis.

[3] = target: N-terminally truncated recombinant hDHODH enzyme (Homo sapiens, UniProt Q02127); test: biochemical; assay type: biochemical; conditions: human DHODH assay; read-out: IC50 range
Outline: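 DCIP reduction followed at 600 nm for 2 min, with 60 μM 2,6-dichloroindophenol, 50 μM decylubiquinone and 100 μM dihydroorotate (reaction started with dihydroorotate). Buffer 50 mM TrisHCl, 150 mM KCl, 0.1% Triton X-100, pH 8.0, 30° C. IC50 from at least six compound concentrations.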

[4] = target: human URAT1 uptake transporter (Homo sapiens (Human), UniProt Q96S37); test: Human URAT1 uptake transporter assay (MDCKII-URAT1-LV, SOLVO); assay type: cell-based; conditions: 10 μM compound, 20 μM uric acid probe substrate
Experimental: In the human URAT1 uptake transporter assay (host cell line: MDCKII), the accumulation of the probe substrate in the presence of a DHODH inhibitor (at a concentration of 10 μM) into cells was measured. The assay was executed at SOLVO with catalogue number MDCKII-URAT1-LV. 20 μM uric acid served as probe substrate. Reference inhibitor was benzbromarone at a concentration of 300 μM, which served as internal control.

[5] = Kinetic aqueous solubility in PBS at pH 7.4; conditions: pH 7.4, aqueous buffer, kinetic from dmso stock
SARS-CoV-2 d6-YFP = test: Combinatorial drug assessment with EIDD-1931 by viral replication inhibition assay; assay type: cell-based
SARS-CoV-2 = SARS-CoV-2 viral replication (YFP) assay; assay type: cell-based; conditions: Severe acute respiratory syndrome coronavirus 2, read-out: EC50 range
[6] = high vidofludimus doses; cited from earlier work
Caco-2 monolayer = test: A-B and B-A permeability (Caco-2, pH 7.4/7.4); assay type: in vitro ADME, human; conditions: Caco-2, pH 7.4
From the text: (§1) The Caco-2 cell line is a human colon adeno-carcinoma cell line that differentiates in culture and resembles the epithelial lining of the human small intestine. […]

[7] = Partition coefficient log D (n-octanol/PBS at pH 7.4); assay type: physicochemical; conditions: pH 7.4
Experimental: The total amount of compound was determined as the peak area of the principal peak in a calibration standard (100 μM) containing organic solvent (MeOH/water, 60/40 v/v). The amount of compound in buffer was determined as the combined, volume-corrected and weighted areas of the corresponding peaks in the aqueous phases of three organic-aqueous samples of different composition. An automated weighting system was used to ensure the preferred use of raw data from those samples with well quantifiable peak signals. The amount of compound in organic was calculated by subtraction.
Subsequently, the partition coefficient (log D, n-octanol/PBS at pH 7.4) was calculated as the Log10 of the amount of compound in the organic phase divided by the amount of compound in the aqueous phase (Eurofins Discovery Services Item #417).

[8] = pH 7.4
[9] = A-B and B-A permeability (Caco-2, pH 7.4/7.4); assay type: in vitro ADME, human; conditions: human; for recovery at 10 μM: Caco-2, Caco-2, 10 μM
From the text: as §1

[10] = Cytotoxicity in human rhinovirus test
in vitro [11] = assay type: cell-based; conditions: human
From the text: (§2) The following results were obtained:

[12] = Metabolic stability in rat liver microsomes; conditions: SD
From the text: (§3) The metabolism was monitored by HPLC-MS/MS. Verapamil served as positive control.

RSV-B = test: Antiviral activity on RSV-B in Hep-2 cells; assay type: cell-based; conditions: human respiratory syncytial virus, 48 h, two days after infection
From the text: as §2

RSV-A2 = test: Antiviral activity on RSV-A2 in Hep-2 cells; conditions: human respiratory syncytial virus, HEp-2, 48 h, read-out: RSV-A2 IC50
RSV-Long = test: Antiviral activity on RSV-Long in Hep-2 cells; assay type: cell-based; conditions: human respiratory syncytial virus, 48 h, two days after infection
From the text: as §2

[13] = Mouse pharmacokinetics, female, deuteration matched pair analysis; assay type: in vivo, mice (C57BL/6J)
Experimental: In another matched pair analysis the benefit of deuteration of the N-methoxyacetamide moiety was tested: the pharmacokinetic properties of the compounds were evaluated in 3 female mice (C57BL/6J, 8 week old) after oral or intravenous cassette dosing to assess the oral bioavailability. Dose was 5 mg/kg (oral) and 1 mg/kg (intravenous), application volume was 5 mL/kg (oral) and 2 mL/kg (intravenous), vehicle was 5% solutol, 95% NaCl solution (at 0.9% saline concentration) for oral and 5% solutol, 5% ethanol, 90% NaCl solution (at 0.9% saline concentration) for intravenous application. At each designated time point (0.25, 0.5, 1, 2, 4 and 8 h after dosing for oral; 0.083, 0.25, 0.5, 1, 4 and 8 h after dosing for intravenous), 20 μL whole blood were collected from the tail vein into Li-heparin tubes, frozen on dry ice within 1-2 minutes of sampling and stored at −20° C. until processed for LC-MS analysis.

[14] = tested on: SARS-CoV-2 reporter virus d6-YFP (WT); test: microbe, parasite or virus in culture; assay type: cell-based; conditions: Severe acute respiratory syndrome coronavirus 2, Caco-2
[15] = Metabolic stability in human liver microsomes
From the text: as §3

Chain of human URAT1 uptake transporter (Q96S37 whole entry): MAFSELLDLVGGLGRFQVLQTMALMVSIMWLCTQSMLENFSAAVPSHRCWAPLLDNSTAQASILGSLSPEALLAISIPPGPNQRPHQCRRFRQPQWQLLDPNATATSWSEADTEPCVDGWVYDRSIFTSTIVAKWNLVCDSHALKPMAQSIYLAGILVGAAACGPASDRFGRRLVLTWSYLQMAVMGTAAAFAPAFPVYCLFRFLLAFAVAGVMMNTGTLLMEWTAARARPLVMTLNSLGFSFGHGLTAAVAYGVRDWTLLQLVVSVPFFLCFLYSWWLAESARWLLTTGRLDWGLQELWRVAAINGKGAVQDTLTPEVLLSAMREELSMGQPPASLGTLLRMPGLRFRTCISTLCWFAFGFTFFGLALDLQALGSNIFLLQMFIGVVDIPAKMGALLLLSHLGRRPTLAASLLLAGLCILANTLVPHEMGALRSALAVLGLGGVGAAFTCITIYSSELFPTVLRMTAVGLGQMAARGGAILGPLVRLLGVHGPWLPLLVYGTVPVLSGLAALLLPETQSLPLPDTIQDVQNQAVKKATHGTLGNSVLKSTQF
Chain of N-terminally truncated recombinant hDHODH enzyme (Q02127 whole entry, looked up, the tested form may be a part): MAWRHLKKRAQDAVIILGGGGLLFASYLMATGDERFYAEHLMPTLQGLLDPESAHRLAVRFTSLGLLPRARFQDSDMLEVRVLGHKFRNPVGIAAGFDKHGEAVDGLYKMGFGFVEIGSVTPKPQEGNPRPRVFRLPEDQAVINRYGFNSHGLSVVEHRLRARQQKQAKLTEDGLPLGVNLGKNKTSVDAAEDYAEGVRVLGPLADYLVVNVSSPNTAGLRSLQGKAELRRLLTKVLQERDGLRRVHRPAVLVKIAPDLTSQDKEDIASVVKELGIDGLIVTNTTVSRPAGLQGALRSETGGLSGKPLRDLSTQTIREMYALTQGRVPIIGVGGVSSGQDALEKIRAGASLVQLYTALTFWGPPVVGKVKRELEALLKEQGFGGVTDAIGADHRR

SMILES | pEC50 (human rhinovirus HRV-14; HRV-14, read-out: EC50) | AUC ([2]; female mice) [ng·h/mL] | Cmax ([2]; female mice) [ng/mL] | AUC ([2]; male mice) [ng·h/mL] | Cmax ([2]; male mice) [ng/mL] | F ([2]; female mice) | half-life ([2]; female) [h] | F ([2]; male mice) | half-life ([2]; male) [h] | pIC50 [3] | human URAT1 uptake transporter stimulation @ 10 μM [4] [%] | pEC50 (SARS-CoV-2) | CC50 [10] [µM] | other results
CCOC(=O)c1ccc(OCCC2CCN(c3ccc(C)nn3)CC2)cc1 [pirodavir] | 9.52 |  |  |  |  |  |  |  |  |  |  |  |  | CC50 (in vitro [1]): 4.5 µM
CS(=O)(=O)NC(=O)C1=C(C(=O)Nc2c(F)c(F)c(-c3cccc(OC(F)(F)F)c3)c(F)c2F)CCC1 [Example 1, N^1-(Methylsulfonyl)-N^2-(2,3,5,6-tetrafluoro-3′-(trifluoromethoxy)-[1,1′-biphenyl]-4-yl)cyclopent-1-ene-1,2-dicarboxamide] |  | 7350 | 1320 | 3200 | 754 | ♀ 217% | 2.8 | ♂ 49% | 2.9 | > 7.00 | 28 | 4.60 to 5.00 |  | solubility [5]: 237 µM (≈ 128 µg/mL); antiviral effect in combination with EIDD-1931 (SARS-CoV-2 d6-YFP): synergistic antiviral effect; antiviral effect in combination with EIDD-1931 (SARS-CoV-2 d6-YFP; listed as Compound 1): synergistic antiviral effects
COc1cccc(-c2ccc(NC(=O)C3=C(C(=O)O)CCC3)c(F)c2)c1 [vidofludimus, 2-((3-fluoro-3′-methoxy-[1,1′-biphenyl]-4-yl)carbamoyl)cyclopent-1-ene-1-carboxylic acid] |  |  |  |  |  |  |  |  |  |  |  |  |  | blood uric acid levels [6]: decrease; urine red blood cell count [6]: increase
[2H]C([2H])([2H])Oc1cccc(-c2cc(F)c(NC(=O)C3=C(C(=O)NOC)CCC3)c(F)c2)c1 [Comparative Example C1, reference compound] |  |  |  |  |  |  |  |  |  |  | 173 |  |  | A-B permeability (Caco-2 monolayer): 0.068 ×10⁻⁶ cm/s; B-A permeability (Caco-2 monolayer): 0.88 ×10⁻⁶ cm/s; logD [7]: 1.0; solubility [8]: 220 µM (≈ 89.2 µg/mL)
[2H]C([2H])([2H])Oc1cccc(-c2cc(F)c(NC(=O)C3=C(C(=O)NOC)CCC3)c(F)c2)c1 [Example 4] |  | 1210 | 690 | 1780 | 1110 | ♀ 87% | 1.3 | ♂ 63% | 1.1 |  | 26 | > 5.00 | > 25 | recovery at 10 μM ([9]; A-B direction, read-out: recovery (A-B)): 60%; recovery at 10 μM ([9]; B-A direction, read-out: recovery (B-A)): 52%; Papp A→B at 10 μM ([9]; Caco-2, 10 μM, pH 7.4/7.4): 1.6 ×10⁻⁶ cm/s; Papp B→A at 10 μM ([9]; Caco-2, 10 μM, pH 7.4/7.4): 0.26 ×10⁻⁶ cm/s; pEC50 (human rhinovirus HRV-14): 5.66
[2H]C([2H])([2H])Oc1cccc(-c2cc(F)c(NC(=O)c3ccsc3C(=O)NOC)c(F)c2)c1 [Example 9, N3-(3,5-Difluoro-3′-(methoxy-d3)-[1,1′-biphenyl]-4-yl)-N2-methoxythiophene-2,3-di-carboxamide] | 7.85 |  |  |  |  |  |  |  |  | > 7.00 |  | > 6.00 | > 25 | CC50 at 2 days (in vitro [11]): 45.3 µM; microsomal CLint ([12]; female): 63.8 µL/min/mg; microsomal CLint ([12]; male): 183 µL/min/mg; pIC50 (RSV-B): > 7.00; pIC50 (RSV-A2): > 7.00; pIC50 (RSV-Long): > 7.00; AUC(0-t) ([13]; C57BL/6J, mouse, in vivo, female mice, 0 to 8 h): 12300 ng·h/mL; Cmax ([13]; C57BL/6J, mouse, in vivo, female mice, 5 mg/kg oral, 1 mg/kg intravenous cassette): 3000 ng/mL; F ([13]; female mice, bioavailability): 49%; half-life ([13]; female, C57BL/6J, mouse, in vivo): 2.6 h; pEC50 [14]: 7.14; microsomal CLint ([15]; female): 55.5 µL/min/mg; microsomal CLint ([15]; male): 76.5 µL/min/mg
